Assay results taken from US20050180935A1, “Deodorant cosmetic composition comprising a combination of zinc gluconate and an antiperspirant aluminum salt” (priority 2003, published 2005).

Assay: deodorant efficacy test: odor intensity of incubated sweat rated by expert panel
Parameters: species or system human
Conditions: 24 h at 37° C, vs control sweat sample
Procedure: Collections of underarm sweat were taken in a sauna from 6 volunteers; the samples of individual sweat were stored in ice for a few hours and were initially almost odorless. They were mixed together and divided into 1 ml aliquots. The active agents were added to the aliquots, which were then incubated in an oven at 37° C. After incubation for 24 hours, a panel of experts evaluated the intensity of the odor in comparison with a control sample: 1 ml of sweat incubated without an active agent. The intensity was evaluated on a scale ranging from 0 (no odor) to 4 (very strong odor).
The results below are expressed as a percentage of variation of the intensity of the odor in comparison with the control sweat sample (mean of the percentages of variation at T24h).

With `Oc1cc(Cl)ccc1Oc1ccc(Cl)cc1Cl` [(B), 2,4,4′-trichloro-2′-hydroxydiphenyl ether] as the compound, how does the “% of reduction in the intensity of the odor” value (“% of reduction” for short) (0.4 mg AM/ml of sweat) read?
Its value is −49%.

With aluminum chlorohydrate [ACH] as the compound, how does the “% of reduction” value (0.1 mg AM/ml of sweat) read?
The value was −37%.

With zinc gluconate [(A)] as the compound, how does the “% of reduction” value (0.5 mg AM/ml of sweat) read?
Its value is −19%.

Which “% of reduction” value (0.3 mg AM/ml of sweat) does the source give for zinc ricinoleate [(C)] here?
The value was −4%.
